Data taken from US9663464B2, “Carbazole derivatives acting on 5-HT7 receptor” (KOREA INSTITUTE OF SCIENCE AND TECHNOLOGY, priority 2015, dated 2017).
Counter-ions that a name gives are not always drawn.

Assays:
[1] = target: T1, 5-HT2C (Homo sapiens, UniProt P28335); test: 5-HT2C receptor inhibition/binding (Tables 1-3)
T1 sequence (P28335 33-458): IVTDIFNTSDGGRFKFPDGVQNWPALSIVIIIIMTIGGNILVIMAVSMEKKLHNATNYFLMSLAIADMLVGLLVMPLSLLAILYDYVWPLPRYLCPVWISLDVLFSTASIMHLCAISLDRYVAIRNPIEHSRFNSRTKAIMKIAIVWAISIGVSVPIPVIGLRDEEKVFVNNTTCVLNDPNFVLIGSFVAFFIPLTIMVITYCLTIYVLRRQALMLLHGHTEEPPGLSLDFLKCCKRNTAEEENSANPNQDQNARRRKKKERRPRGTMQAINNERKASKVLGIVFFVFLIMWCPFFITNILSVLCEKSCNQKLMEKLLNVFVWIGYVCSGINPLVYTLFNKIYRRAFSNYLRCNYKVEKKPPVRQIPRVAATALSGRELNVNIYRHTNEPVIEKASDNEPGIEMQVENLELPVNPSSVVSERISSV

[2] = target: T2, human gene recombinant 5-HT7 receptor expressed in CHO cells (Homo sapiens, UniProt P34969); test: Binding affinity for the 5-HT7 serotonin receptor ([3H]LSD radioligand)
T2 construct: expressed in transfected cells; host or cells: CHO cells (membrane preparation)
Experimental: In this example, the human gene recombinant 5-HT7 receptor expressed in CHO cells was used. 1 nM [^3H]LSD, 5-HT7 receptor membrane (15 μg/well), a test drug, 10 mM MgCl2, 50 mM Tris-HCl buffer (pH 7.4) containing 0.1 mM EDTA, etc. were added to a vessel until the final volume reached 0.25 ml. The test drug was used at various concentrations. The mixture was cultured at 25° C. for 90 min. The culture was rapidly filtered through a Whatman GF/C glass fiber filter, which had been previously wetted with 0.3% polyethyleneimine using a Brandel harvester, to quench the reaction. The reaction mixture was washed with cold 50 mM Tris-HCl buffer. The filter was covered with MeltiLex, sealed in a sample bag, and dried in an oven. Counting was performed using MicroBeta (Wallac) and nonspecific binding was measured in the presence of […]. The K value of the test drug was obtained from nonlinear regression analysis (GraphPad Prism Program, San Diego, USA) of isotherms obtained by repeatedly performing the experiment on the drug at 10-11 stage concentrations in two test tubes (each twice).
The % inhibition values of the inventive compounds having different Y structures at a concentration of 10 μM against the 5-HT7 serotonin receptor were measured. Further, the binding affinity (Ki) values of the inventive compounds having different Y structures at a concentration of 10 μM for the 5-HT7 serotonin receptor were measured.

[3] = target: 5-HT1E (Homo sapiens, UniProt P28566); test: 5-HT1E receptor inhibition (Table 1); assay type: binding
[4] = test system: Rats; test: Antagonism against migraine: leakage of fluorescent protein (FITC-BSA) from meningeal vessels; assay type: in vivo; settings: for protein leakage vs reference value: 5 mg/kg to 20 mg/kg
Experimental: It is known that inflammatory proteins leaked from meningeal vessels by 5-HT are implicated in causing migraine. The amount of the proteins leaked in the presence of the compound of Example 2.10 was measured and the preventive effect of the compound on migraine was assessed by a partial modification of the method described in the literature [Rachel A. Spokes, Vicki C. Middlefell, European Journal of Pharmacology (1995) 281, 75-79]. SB-269970, which is known as a 5-HT7 receptor antagonizing compound (J. Med. Chem. (2000) 43, 342-345), was used as a comparative compound. A negative control free of […] was prepared. The fluorescence intensity of the negative control was defined as a reference value. As a positive control, physiological saline was added instead of the compound of Example 2-10.
Rats (350-450 g) were administered urethane (1.5 g/kg) intraperitoneally. 50 mg/kg of a fluorescent protein (FITC-BSA) was administered intravenously through a cannula introduced into the saphenous vein, and 1 μM […] was administered intravenously. SB-269970 and the compound of Example 2.10 were administered intraperitoneally. The cerebral lobes were separated and the meninges were drawn from each rat. The meninges were allowed to stand at 37° C. for 16 h in the presence of physiological saline at pH 11, followed by centrifugation. The supernatant was plated on plates. The fluorescence intensity was measured using a fluorescence leader (excitation wavelength 485 nm, […] wavelength 530 nm) and the meninges were weighed. The fluorescence intensity per mg of the meningeal proteins was calculated.

[5] = target: 5-HT6 (Homo sapiens, UniProt P50406); test: 5-HT6 receptor inhibition/binding (Tables 2-3)
[6] = target: T3, 5-HT1A (Homo sapiens, UniProt P08908); test: 5-HT1A receptor inhibition (Table 3); assay type: binding
T3 sequence (P08908 1-422): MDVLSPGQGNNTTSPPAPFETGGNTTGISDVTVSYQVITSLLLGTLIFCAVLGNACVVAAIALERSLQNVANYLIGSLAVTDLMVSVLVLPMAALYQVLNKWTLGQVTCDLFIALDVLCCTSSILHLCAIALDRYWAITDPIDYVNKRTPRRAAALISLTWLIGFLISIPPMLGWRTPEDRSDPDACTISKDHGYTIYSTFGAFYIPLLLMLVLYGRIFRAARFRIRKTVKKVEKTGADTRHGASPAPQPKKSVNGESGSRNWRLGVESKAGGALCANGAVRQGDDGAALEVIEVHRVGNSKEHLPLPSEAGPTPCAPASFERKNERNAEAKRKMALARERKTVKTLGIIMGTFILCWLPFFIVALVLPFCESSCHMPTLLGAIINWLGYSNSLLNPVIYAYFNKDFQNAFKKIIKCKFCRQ

5-HT6, sequence (P50406 whole entry, species assumed): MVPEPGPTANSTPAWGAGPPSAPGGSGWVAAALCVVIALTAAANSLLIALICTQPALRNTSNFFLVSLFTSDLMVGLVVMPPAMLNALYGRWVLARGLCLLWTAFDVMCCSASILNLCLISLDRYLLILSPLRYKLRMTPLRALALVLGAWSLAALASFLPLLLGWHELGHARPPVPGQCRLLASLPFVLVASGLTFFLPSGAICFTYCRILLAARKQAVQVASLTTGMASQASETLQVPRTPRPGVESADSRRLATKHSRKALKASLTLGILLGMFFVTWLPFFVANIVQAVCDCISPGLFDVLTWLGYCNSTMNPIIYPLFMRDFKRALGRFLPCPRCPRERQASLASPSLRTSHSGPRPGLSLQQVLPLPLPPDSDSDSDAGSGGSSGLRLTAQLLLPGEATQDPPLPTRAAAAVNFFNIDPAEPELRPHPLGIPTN
T2 sequence (P34969 whole entry): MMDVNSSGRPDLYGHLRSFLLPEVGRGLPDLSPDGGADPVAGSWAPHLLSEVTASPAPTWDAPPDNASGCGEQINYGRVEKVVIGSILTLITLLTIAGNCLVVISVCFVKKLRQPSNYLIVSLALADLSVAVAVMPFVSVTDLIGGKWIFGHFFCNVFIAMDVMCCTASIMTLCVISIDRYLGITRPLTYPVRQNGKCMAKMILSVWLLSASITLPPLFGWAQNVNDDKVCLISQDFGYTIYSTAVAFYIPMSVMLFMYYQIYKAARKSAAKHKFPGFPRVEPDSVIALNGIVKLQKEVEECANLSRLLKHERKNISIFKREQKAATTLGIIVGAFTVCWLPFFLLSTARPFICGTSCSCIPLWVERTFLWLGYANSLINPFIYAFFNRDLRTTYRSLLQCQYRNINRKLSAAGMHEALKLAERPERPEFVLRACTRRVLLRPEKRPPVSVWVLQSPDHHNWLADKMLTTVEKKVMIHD
5-HT1E, sequence (P28566 whole entry, species assumed): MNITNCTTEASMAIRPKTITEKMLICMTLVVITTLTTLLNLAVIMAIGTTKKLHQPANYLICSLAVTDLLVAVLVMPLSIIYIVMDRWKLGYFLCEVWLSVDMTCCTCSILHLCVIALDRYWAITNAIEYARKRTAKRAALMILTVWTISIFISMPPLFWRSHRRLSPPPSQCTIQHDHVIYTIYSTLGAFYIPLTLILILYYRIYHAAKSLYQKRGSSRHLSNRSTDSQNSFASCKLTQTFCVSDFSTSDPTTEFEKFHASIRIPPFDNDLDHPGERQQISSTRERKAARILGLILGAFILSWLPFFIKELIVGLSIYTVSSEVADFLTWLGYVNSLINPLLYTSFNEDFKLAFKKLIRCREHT

`CN(CCCCCC(=O)n1c2ccccc2c2ccccc21)Cc1ccccc1` [Example 2.2, 6-(Benzyl)methyl)amino)-1-(9H-carbazol-9-yl)hexan-1-one hydrochloride] showed a Ki [1] of 1320 nM, an inhibition at 10 µM [1] of 54.6% and an inhibition at 10 µM [2] of 92%. For the same molecule, the inhibition at 10 µM [3] was 10.2%.

With `O=C(CCCCCN1CCCC1)n1c2ccccc2c2ccccc21` [Example 2.3, 1-(9H-carbazol-9-yl)-6-(pyrrolidin-1-yl)hexan-1-one hydrochloride] the Ki [1] was 764 nM, the inhibition at 10 µM [1] was 76.7% and the Ki [2] was 1050 nM. For the same molecule, the inhibition at 10 µM [2] was 74% and the inhibition at 10 µM [3] was 13.9%.

In the case of `CC1CCCN(CCCCCC(=O)n2c3ccccc3c3ccccc32)C1` (stereo not drawn) [Example 2.5, 1-(9H-carbazol-9-yl)-6-(3-methylpiperidin-1-yl)hexan-1-one hydrochloride], the Ki [1] is reported as 486 nM, the inhibition at 10 µM [1] is reported as 86.6% and the Ki [2] is reported as 550 nM. The inhibition at 10 µM [2] was 84.6% and the inhibition at 10 µM [3] was -15.3%.

Molecule `CC1CC(C)CN(CCCCCC(=O)n2c3ccccc3c3ccccc32)C1` (stereo not drawn) [Example 2.6, 1-(9H-carbazol-9-yl)-6-(3,5-dimethylpiperidin-1-yl)hexan-1-one hydrochloride] has a Ki [1] of 454 nM, an inhibition at 10 µM [1] of 80.6% and a Ki [2] of 833 nM. The inhibition at 10 µM [2] was 77.2% and the inhibition at 10 µM [3] was -21.9%.

`O=C(CCCCCN1CCCCCC1)n1c2ccccc2c2ccccc21` [Example 2.7, 6-(Azepan-1-yl)-1-(9H-carbazol-9-yl)hexan-1-one hydrochloride] was tested, and the Ki [1] was 411 nM, the inhibition at 10 µM [1] was 77.2% and the Ki [2] was 616 nM. For the same molecule, the inhibition at 10 µM [2] was 86% and the inhibition at 10 µM [3] was 1.8%.

In the case of `O=C(CCCCCN1CCC(c2ccccc2)CC1)n1c2ccccc2c2ccccc21` [Example 2.9, 1-(9H-carbazol-9-yl)-6-(4-phenylpiperidin-1-yl)hexan-1-one hydrochloride], the “protein leakage vs reference value” [4] is reported as “suppressed to a level close to the reference value”, the Ki [1] is reported as 758 nM and the inhibition at 10 µM [1] is reported as 55.3%. For the same molecule, the Ki [2] was 157 nM, the inhibition at 10 µM [2] was 99.8% and the Ki [5] was 373 nM. The inhibition at 10 µM [5] was 92.2%.

In the case of `O=C(CCCCCN1CCC(Cc2ccccc2)CC1)n1c2ccccc2c2ccccc21` [Example 2.10, 6-(4-Benzylpiperidin-1-yl)-1-(9H-carbazol-9-yl)hexan-1-one hydrochloride], the “amount of the proteins leaked (meningeal fluorescence intensity) vs reference value” ([4]; intraperitoneal, 3 mg/kg) is reported as “effectively suppressed to a level close to the reference value”, the Ki [1] is reported as 683 nM and the inhibition at 10 µM [1] is reported as 70.4%. For the same molecule, the Ki [2] was 252 nM, the inhibition at 10 µM [2] was 103% and the Ki [5] was 354 nM. The inhibition at 10 µM [5] was 91.9%.

In the case of `O=C(CCCCCN1CCN(c2noc3ccccc23)CC1)n1c2ccccc2c2ccccc21` [Example 2.14, 6-(4-Benzo[d]isoxazol-3-yl)piperazin-1-yl)-1-(9H-carbazol-9-yl)hexan-1-one hydrochloride], the “protein leakage vs reference value” [4] is reported as “suppressed to a level close to the reference value”, the inhibition at 10 µM [1] is reported as 63.7% and the Ki [2] is reported as 73 nM. For the same molecule, the inhibition at 10 µM [2] was 94.1%, the inhibition at 10 µM [6] was 80.5% and the inhibition at 10 µM [5] was 81.3%.

For `O=C(CCCCCN1CCN(c2ccccc2O)CC1)n1c2ccccc2c2ccccc21` [Example 2.15, 1-(9H-carbazol-9-yl)-6-(4-(2-hydroxyphenyl)piperazin-1-yl)hexan-1-one], the “protein leakage vs reference value” [4] was “suppressed to a level close to the reference value”, the inhibition at 10 µM [1] was 73.5% and the Ki [2] was 38 nM. The inhibition at 10 µM [2] was 100%, the inhibition at 10 µM [6] was 94.2% and the inhibition at 10 µM [5] was 85.3%.

`CN(CCCCC(=O)n1c2ccccc2c2ccccc21)Cc1ccccc1` [Example 2.18, 5-(Benzyl(methyl)amino)-1-(9H-carbazol-9-yl)pentan-1-one hydrochloride] was tested, and the inhibition at 10 µM [1] was 32.6%, the Ki [2] was 513 nM and the inhibition at 10 µM [2] was 83.1%. For the same molecule, the inhibition at 10 µM [3] was -22.5%.

`O=C(CCCCN1CCCC1)n1c2ccccc2c2ccccc21` [Example 2.19, 1-(9H-carbazol-9-yl)-5-(pyrrolidin-1-yl)pentan-1-one hydrochloride] gave an inhibition at 10 µM [1] of 45%, a Ki [2] of 2160 nM and an inhibition at 10 µM [2] of 57.4%. It also gave an inhibition at 10 µM [3] of 16.3%.

In the case of `CC1CCN(CCCCC(=O)n2c3ccccc3c3ccccc32)CC1` [Example 2.20, 1-(9H-carbazol-9-yl)-5-(4-methylpiperidin-1-yl)pentan-1-one hydrochloride], the inhibition at 10 µM [1] is reported as 44.4%, the Ki [2] is reported as 592 nM and the inhibition at 10 µM [2] is reported as 80.2%. It also gave an inhibition at 10 µM [3] of -19.3%.

Molecule `CC1CCCN(CCCCC(=O)n2c3ccccc3c3ccccc32)C1` (stereo not drawn) [Example 2.21, 1-(9H-carbazol-9-yl)-5-(3-methylpiperidin-1-yl)pentan-1-one hydrochloride] has an inhibition at 10 µM [1] of 50%, a Ki [2] of 883 nM and an inhibition at 10 µM [2] of 69.4%. The inhibition at 10 µM [3] was -6%.

In the case of `CC1CC(C)CN(CCCCC(=O)n2c3ccccc3c3ccccc32)C1` (stereo not drawn) [Example 2.22, 1-(9H-carbazol-9-yl)-5-(3,5-dimethylpiperidin-1-yl)pentan-1-one hydrochloride], the Ki [1] is reported as 852 nM, the inhibition at 10 µM [1] is reported as 52.1% and the Ki [2] is reported as 1400 nM. The inhibition at 10 µM [2] was 67.6% and the inhibition at 10 µM [3] was -10.5%.

Molecule `O=C(CCCCN1CCCCCC1)n1c2ccccc2c2ccccc21` [Example 2.23, 5-(Azepan-1-yl)-1-(9H-carbazol-9-yl)pentan-1-one hydrochloride] has a Ki [1] of 1090 nM, an inhibition at 10 µM [1] of 55% and a Ki [2] of 949 nM. The inhibition at 10 µM [2] was 77% and the inhibition at 10 µM [3] was -11.7%.

In the case of `CCCCN(C)CCCCCCn1c2ccccc2c2ccccc21` [Example 2.35, N-Butyl-6-(9H-carbazol-9-yl)-N-methylhexane-1-amine], the inhibition at 10 µM [1] is reported as 59.4%, the Ki [2] is reported as 511 nM and the inhibition at 10 µM [2] is reported as 70.7%. The inhibition at 10 µM [3] was 55.7%.

For `Oc1ccccc1N1CCN(CCCCn2c3ccccc3c3ccccc32)CC1` [Example 2.55, 2-(4-(4-(9H-carbazol-9-yl)butyl)piperazin-1-yl)phenol], the “protein leakage vs reference value” [4] was “suppressed to a level close to the reference value”, the Ki [2] was 55 nM and the inhibition at 10 µM [2] was 95.8%. The inhibition at 10 µM [6] was 103% and the inhibition at 10 µM [5] was 77.8%.

With `CC1CCN(CC[C@H]2CCCN2S(=O)(=O)c2cccc(O)c2)CC1` [SB-269970, reference compound] the “amount of the proteins leaked (meningeal fluorescence intensity)” value ([4]; intraperitoneal, 10 mg/kg) was “reduced the amount of the proteins leaked” and the “amount of the proteins leaked (meningeal fluorescence intensity) vs reference value” ([4]; intraperitoneal, 30 mg/kg) was “not lowered down to the reference value”.
